Test results: publication PMC12646458, “Structural characterization of the YbbAP-TesA ABC transporter identifies it as a lipid hydrolase complex that extracts hydrophobic compounds from the bacterial inner membrane” (PLOS Biology, 2025)
Positions count from the first letter of the chain named. ≈ marks a conversion by molar mass, not a printed value.

Assays:
PaTesA = molecular target: T1, PaTesA (Pseudomonas aeruginosa, UniProt Q9HZY8); experiment: absorbance at […] nm; assay type: biochemical; settings: purified tagged enzyme
T1 construct: gene tesA; purified, N-terminal tag

YbbAP-TesA = molecular target: T2, YbbAP-TesA (Escherichia coli, UniProt P0ADA1); experiment: Michaelis-Menten, absorbance at […] nm; assay type: biochemical; settings: PBS with 0.01% LMNG, 21 °C
T2 construct: co-expressed from pETDuet1-based plasmids in E. coli C43(DE3); His-tag on YbbA; complex in LMNG detergent; 2:1:1 YbbA:YbbP:TesA; Uncharacterized ABC transporter permease YbbP
T2 sequence (P0ADA1 27-208): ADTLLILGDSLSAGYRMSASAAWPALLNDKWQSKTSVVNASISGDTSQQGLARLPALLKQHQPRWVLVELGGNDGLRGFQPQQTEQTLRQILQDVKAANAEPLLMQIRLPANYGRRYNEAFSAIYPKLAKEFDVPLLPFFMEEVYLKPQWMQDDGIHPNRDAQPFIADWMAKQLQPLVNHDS
T2 sequence (P0A9T8 1-228 partner): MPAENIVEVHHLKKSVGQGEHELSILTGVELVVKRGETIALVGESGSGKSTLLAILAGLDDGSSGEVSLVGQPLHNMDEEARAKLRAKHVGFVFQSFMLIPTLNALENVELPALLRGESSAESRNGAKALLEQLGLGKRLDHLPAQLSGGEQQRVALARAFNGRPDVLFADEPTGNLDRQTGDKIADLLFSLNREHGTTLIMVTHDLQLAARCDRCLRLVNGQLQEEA
T2 sequence (P77504 1-804 partner): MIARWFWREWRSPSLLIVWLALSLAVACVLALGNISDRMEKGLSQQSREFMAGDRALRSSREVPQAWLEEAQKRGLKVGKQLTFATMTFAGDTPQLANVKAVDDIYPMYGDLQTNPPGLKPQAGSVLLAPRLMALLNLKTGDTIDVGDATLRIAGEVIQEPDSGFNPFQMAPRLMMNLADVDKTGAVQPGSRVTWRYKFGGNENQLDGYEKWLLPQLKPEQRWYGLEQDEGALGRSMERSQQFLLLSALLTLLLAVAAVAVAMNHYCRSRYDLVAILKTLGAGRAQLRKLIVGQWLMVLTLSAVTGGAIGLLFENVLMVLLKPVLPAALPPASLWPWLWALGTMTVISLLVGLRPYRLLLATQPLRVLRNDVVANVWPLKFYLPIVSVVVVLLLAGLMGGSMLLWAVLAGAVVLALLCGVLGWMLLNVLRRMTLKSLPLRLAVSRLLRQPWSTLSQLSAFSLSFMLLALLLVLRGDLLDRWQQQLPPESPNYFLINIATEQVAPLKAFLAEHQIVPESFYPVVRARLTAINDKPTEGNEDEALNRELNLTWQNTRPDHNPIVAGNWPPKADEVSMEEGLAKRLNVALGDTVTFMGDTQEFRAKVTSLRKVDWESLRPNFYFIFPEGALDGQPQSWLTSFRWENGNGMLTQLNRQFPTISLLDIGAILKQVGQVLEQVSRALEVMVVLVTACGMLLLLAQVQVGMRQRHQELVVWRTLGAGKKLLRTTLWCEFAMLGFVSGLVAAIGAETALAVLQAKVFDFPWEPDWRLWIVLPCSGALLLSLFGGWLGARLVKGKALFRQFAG

TesA [1] = molecular target: T3, TesA (Escherichia coli, UniProt P0ADA1); experiment: absorbance assay; assay type: biochemical; set-up: isolated TesA; for the cell assays expressed from a pET vector in E. coli delta-tesA (Keio) cells; settings: isolated TesA
T3 sequence (P0ADA1 27-208): T2 sequence (P0ADA1 27-208)

Escherichia coli BW25113 = tested on: T4, Escherichia coli BW25113; experiment: microbe, parasite or virus in culture; set-up: antibiotic susceptibility testing of E. coli strains, MIC, median of replicates; settings: read-out: Median MIC
T4 construct: BW25113
Description: (§1) Supplementary file pbio.3003427.s003.docx: S3 Table Antibiotic susceptibility testing for TesA and YbbP knockout strains. (DOCX)

[2] = tested on: T5, Escherichia coli C43(DE3); experiment: microbe, parasite or virus in culture; set-up: antibiotic susceptibility testing of E. coli strains, MIC, median of replicates; settings: D=+IPTG +Kan, median MIC, empty pET28, IPTG and kanamycin present
T5 construct: C43(DE3) carrying empty pET28 vector
Description: as §1

TesA [3] = molecular target: T3, TesA; experiment: ester hydrolysis by live cells expressing TesA, absorbance at […] nm; assay type: cell-based; set-up: for the cell assays expressed from a pET vector in E. coli delta-tesA (Keio) cells; settings: PBS; live E. coli delta-tesA cells; 2.5 mM substrate after mixing
YbbP = molecular target: T6, YbbP (E. coli, UniProt P77504 1-804); experiment: cryo-EM structure; YbbAP-TesA(Ser36Ala) complex with AMP-PNP, co-expressed and co-purified (Ni-affinity, SEC), 0.01% LMNG; 4.6 Å; settings: both partners purified
T6 construct: YbbP, transmembrane component (10 transmembrane helices, two periplasmic domains) of the YbbAP Type VII ABC transporter, Escherichia coli; source: size exclusion chromatography for structure determination), in 0.01% LMNG
T6 sequence: T2 sequence (P77504 1-804 partner)

T1 sequence (Q9HZY8 22-201): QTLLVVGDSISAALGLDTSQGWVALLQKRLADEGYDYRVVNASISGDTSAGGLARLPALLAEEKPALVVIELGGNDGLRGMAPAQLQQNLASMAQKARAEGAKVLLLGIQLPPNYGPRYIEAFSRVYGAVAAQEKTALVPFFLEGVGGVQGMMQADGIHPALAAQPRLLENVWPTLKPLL

O=C(Cc1cccs1)N[C@@H]1C(=O)N2C(C(=O)O)=C(/C=C/c3ccc([N+](=O)[O-])cc3[N+](=O)[O-])CS[C@H]12 [nitrocefin]
absorbance at 488 nm (PaTesA): We also separately confirmed that the P. aeruginosa TesA can hydrolyze nitrocefin | Km (YbbAP-TesA): < 0.01 µM | absorbance assay (TesA [1]): YbbAP-TesA (and isolated TesA) can hydrolyze nitrocefin

CC(=O)OCC1=C(C(=O)O)N2C(=O)[C@@H](NC(=O)Cc3cccs3)[C@H]2SC1 [Cephalothin]
MIC (Escherichia coli BW25113): 12 µg/mL (≈ 30.3 µM)

CC1(C)S[C@@H]2[C@H](NC(=O)Cc3ccccc3)C(=O)N2[C@H]1C(=O)O [Penicillin G]
MIC (Escherichia coli BW25113): 32 µg/mL (≈ 95.7 µM)

CC1(C)S[C@@H]2[C@H](NC(=O)[C@H](N)c3ccccc3)C(=O)N2[C@H]1C(=O)O [Ampicillin]
MIC [2]: 8 µg/mL (≈ 22.9 µM)

CCCC(=O)Oc1ccc([N+](=O)[O-])cc1 [p-nitrophenyl butyrate]
relative rate (TesA [3]): expressing either TesA (or YbbAP-TesA) from a plasmid show robust hydrolytic activity

B1: TesA Ser36Ala (enzyme, E. coli, UniProt P0ADA1 27-208, looked up)
chain: T2 sequence (P0ADA1 27-208) with S10A
notes: TesA, periplasmic multifunctional esterase/thioesterase/lysophospholipase, Escherichia coli, with the catalytic site mutation Ser36Ala; printed residue numbers fit the precursor with its signal peptide; also called TesA catalytic site mutation (Ser36Ala); source: size exclusion chromatography for structure determination), in 0.01% LMNG
stoichiometry N (YbbP): 1

B2: YbbA (natural protein, E. coli)
chain: T2 sequence (P0A9T8 1-228 partner)
notes: also called ABC domain; source: size exclusion chromatography for structure determination), in 0.01% LMNG
stoichiometry N (YbbP): 2
